Laboratory results published in paper PMC11933534, “Favipiravir induces HuNoV viral mutagenesis and infectivity loss with clinical improvement in immunocompromised patients” (Clinical Immunology (Orlando, Fla.), 2024).
Values joined by “and” are separate entries in the source; they are usually repeats but may differ in a detail not shown here. Equal values may be shown once. Read-outs that look alike come from different tables or passages of the source.

Experiments:
[1] = Favipiravir plasma trough level monitoring in patients (UPLC-MS/MS); assay type: in vivo, human
Description: Plasma was isolated from patient blood samples collected in EDTA. Frozen plasma samples were shipped to Laboratoire de Pharmacocinétique-Toxicologie, […] La Timone, Aix-Marseille Université, Marseille, France for favipiravir concentration analysis. The quantification of favipiravir in thawed plasma samples was performed by ultra-performance liquid chromatography coupled with tandem mass spectrometry (UPLC-MS/MS) method (UPLC-TQD, Waters, USA) with a lower limit of quantification of 0.5 μg/mL [34]. Validation of the assay was performed in accordance with the 2012 EMA guidelines and the ISO15189 guidelines. Model parameter estimation, model simulation properties (visual predictive check) and dose simulations were assessed using […]2 (2.0.6) and rxode2 (2.0.7) in R (4.2.0), as described elsewhere.

HuNoV [2] = experiment: Clinical response of immunocompromised patients with chronic HuNoV infection; assay type: in vivo, human
Description: The Drugs and Therapeutics Committees at Great Ormond Street Hospital for Children, Great North Children's Hospital and Royal Free London NHS Trust approved treatment with favipiravir +/− nitazoxanide in four immunocompromised patients with life-threatening/severe chronic HuNoV infections. After obtaining informed consent, microbiological and pharmacological monitoring was performed. Informed consent was also obtained for microbiological monitoring in 2 untreated patients with HuNoV infections. Residual diagnostic viral samples were released for whole-genome sequencing through the UCL/UCLH Pathogen Biobank National Research Ethics Service Committee London Fulham (reference: [12]/LO/1089). For P1 specifically, residual stool samples were released for in vivo infectivity evaluation in the zebrafish model with research ethics approval from London Bloomsbury Research Ethics Committee (reference: 07/Q0508/43). This allows the use of pseudonymised residual diagnostic samples for research. An additional stool sample positive for HuNoV from the existing collection of samples of the University Hospital of Leuven (Belgium) was used (reference: G-2021–4376). Informed consent was obtained from the patient. […]

HuNoV [3] = experiment: Infectivity of P1 stool-sample HuNoV in zebrafish larvae (fold increase, ID50); assay type: in vivo
Description: Human stool samples, positive for HuNoV, were obtained from the Great Ormond Street Hospital for Children (United Kingdom) and the University Hospital of Leuven (Belgium). An aliquot of 100 mg of each stool sample was re-suspended in 1 mL of sterile PBS, thoroughly vortexed, and centrifuged (5 min, 1000 g), supernatant was harvested and stored at −80 °C. This virus suspension was used for RNA extractions, quantification by RT-qPCR and injections in the zebrafish larvae. HuNoV RNA was extracted from 100 μL of PBS suspension using the Direct-zol RNA kit (Zymo Research, Irvine, CA, USA), according to the manufacturer's protocol. The original concentrations of the stool samples were as followed: SS A: 5.52*10^9 copies/g stool, SS B: 1.34*10^11 copies/g stool, SS C: 2.07*10^11 copies/g stool, SS D: 3.07*10^10 copies/g stool, SS E: 1.23*10^12 copies/g stool, SS F: 3.12*10^11 copies/g stool and GII.4 Sydney[P16] (in house collection KU Leuven): 1.46*10^10 copies/g stool.
Zebrafish larvae were anesthetized and positioned as described previously, in short: zebrafish larvae of 3 days post fertilization were anesthetized and transferred to an agarose mold to position them on their dorsal side with the yolk facing upward. In every experiment, the injection needle was calibrated to ensure the precision of the injection volume. Microinjection was performed using an M3301R Manual Micromanipulator (WPI, Friedberg, Germany) and a FemtoJet 4i pressure microinjector (Eppendorf, Hamburg, Germany). Compound-treated zebrafish larvae received a 1 nL (1.5 nL in case of the combination treatment) injection of compound in the pericardial cavity, while negative control zebrafish were injected with an equal volume of DMSO. Subsequently, the zebrafish larvae received an injection of 3 nL virus in the yolk. After both injections, zebrafish larvae were transferred to 6-well plates with Danieau's solution and further maintained in an incubator with a 14/10 h light/dark cycle at 32 °C.
Zebrafish larvae were homogenized (Precellys 24, Bertin Technologies, Montigny-le-Bretonneux, France), the homogenates were cleared by centrifugation (5 min, 9000 g), and RNA was extracted using the Direct-zol RNA kit (Zymo Research, Irvine, CA, USA), according to the manufacturer's protocol. RNA levels were quantified with a one-step RT-qPCR (iTaq Universal Probes One-Step Kit, Bio-Rad, Hercules, CA, USA) as previously described.
To start, all stool samples were brought to the same theoretical inoculum (± 1000 viral RNA copies/3 nL injection volume) by dilution with PBS. To compare the viral infectivity between different stool samples, multiple methods were used; A) calculating the fold increase by taking the input based on the viral load of P1's stool samples and the amount of viral RNA copies/zebrafish at the peak of replication into account which are both quantified by RT-qPCR and B) determining the 50% infectious dose for each stool sample based on a well-established method adapted to the zebrafish replication model by diluting the collected stool samples to evaluate at which dilution the infectivity is lost.

mouse norovirus = system: mouse norovirus; design: method as in PMID 22809499; settings: 95%CI: 35–43 μg/mL; cited from earlier work
HuNoV [4] = system: HuNoV; design: method as in PMID 30485769; settings: P2 (CVID); favipiravir 1200 mg 12-hourly, three courses; cited from earlier work
HuNoV [5] = system: HuNoV; design: method as in PMID 30485769; settings: P2; favipiravir 1200 mg 12-hourly, three courses; cited from earlier work

NC(=O)c1nc(F)c[nH]c1=O [favipiravir]
Favipiravir plasma trough level ([1]; P1, 200 mg TDS (8-hourly, 51 mg/kg/day), average at month four): 10.0 µg/mL
Favipiravir plasma trough level ([1]; P1, 400 mg TDS (8-hourly, 97 mg/kg/day)): 154 µg/mL and 154.0 µg/mL
Favipiravir plasma trough level ([1]; P4, 400 mg TDS (8-hourly, 67 mg/kg/day)): 159 µg/mL and 159.0 µg/mL
Clinical response (HuNoV [2]; P3 (CID), favipiravir monotherapy): Weight gain, reduced stool output, improved enteral feeding
Patient weight after treatment (HuNoV [2]; P3, second course up to 12-hourly 800 mg, four months, from 28.9 kg): 33.3 kg
Fold increase in viral RNA, 0 to 2 dpi (HuNoV [3]; P1 SS B, 2 days into favipiravir treatment (after 10 days ribavirin), ~1000 genome copies, pre-treatment SS A 321 ± 177): 143 ± 76 fold
50% infectious dose (ID50) (HuNoV [3]; P1 SS B, 2 days into treatment, pre-treatment SS A 289): 697 viral RNA copies/zebrafish
Fold increase in viral RNA, 0 to 2 dpi (HuNoV [3]; P1 SS C, 125 days into favipiravir treatment, ~1000 genome copies, pre-treatment SS A 321 ± 177): 53 ± 31 fold
50% infectious dose (ID50) (HuNoV [3]; P1 SS C, 125 days into treatment, pre-treatment SS A 289): 461 viral RNA copies/zebrafish
50% infectious dose (ID50) (HuNoV [3]; P1 SS D, after a 2-month treatment gap): 338 viral RNA copies/zebrafish
Fold increase in viral RNA, 0 to 2 dpi (HuNoV [3]; P1 SS D, after a treatment gap of 2 months, ~1000 genome copies): 177 ± 55 fold
Fold increase in viral RNA, 0 to 2 dpi (HuNoV [3]; P1 SS E, 6 months after re-introduction at higher favipiravir dose): 75 ± 21 fold
50% infectious dose (ID50) (HuNoV [3]; P1 SS E, after treatment reintroduction (higher dose)): 880 viral RNA copies/zebrafish
Fold increase in viral RNA, 0 to 2 dpi (HuNoV [3]; P1 SS F, 7 months after re-introduction at higher favipiravir dose): 47 ± 16 fold
50% infectious dose (ID50) (HuNoV [3]; P1 SS F, after treatment reintroduction (higher dose)): 1110 viral RNA copies/zebrafish
Increase in the 50% infectious dose in HuNoV shed during treatment (HuNoV [3]; P1 stool samples over one year of treatment): ~1 log10
EC50 for mouse norovirus in vitro (mouse norovirus): EC50 Favipiravir for mouse norovirus (39 μg/mL [35])
Clinical response (HuNoV [4]): Weight gain, reduced stool output, decreased adjunctive loperamide
Change in stool HuNoV viral load (HuNoV [5]): modest decrease in HuNoV VLs, but not viral clearance
